This is an account of results in patent publication US20150175556A1, “DIHYDROPYRIMIDIN-2(1H)-ONES AND DIHYDROPYRIMIDIN-2(1H)-THIONES AS INHIBITORS OF SODIUM IODIDE SYMPORTER” (COMMISSARIAT A L'ENERGIE ATOMIQUE ET AUX ENERGIES …, priority 2012, published 2015).

For series [1], the target named is T1, sodium iodide symporter (NIS), iodide uptake in FRTL5 cells (Rattus norvegicus, UniProt Q63008).
T1 construct: endogenous in cells; host or cells: FRTL5 (rat thyroid-derived cells)
T1 sequence (Q63008 1-618): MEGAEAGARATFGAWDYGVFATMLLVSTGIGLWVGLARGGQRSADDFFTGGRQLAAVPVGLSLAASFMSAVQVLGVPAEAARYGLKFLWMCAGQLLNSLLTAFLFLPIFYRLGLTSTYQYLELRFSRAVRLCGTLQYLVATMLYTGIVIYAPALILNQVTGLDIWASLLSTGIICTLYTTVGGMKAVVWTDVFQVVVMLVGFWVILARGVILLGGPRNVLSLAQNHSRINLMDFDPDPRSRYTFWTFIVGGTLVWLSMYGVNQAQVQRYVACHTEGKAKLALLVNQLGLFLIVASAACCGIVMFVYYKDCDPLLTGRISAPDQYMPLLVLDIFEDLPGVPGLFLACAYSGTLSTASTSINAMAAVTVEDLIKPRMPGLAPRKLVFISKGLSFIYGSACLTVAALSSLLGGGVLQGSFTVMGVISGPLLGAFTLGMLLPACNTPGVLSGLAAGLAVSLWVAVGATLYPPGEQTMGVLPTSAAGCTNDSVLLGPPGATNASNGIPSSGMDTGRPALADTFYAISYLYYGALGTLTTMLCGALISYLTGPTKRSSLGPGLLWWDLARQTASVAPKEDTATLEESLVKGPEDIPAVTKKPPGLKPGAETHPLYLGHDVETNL
The experiment in a line: Inhibition of iodide uptake in FRTL5 cells, non radioactive arsenic/cerium assay. Type of series: cell-based. The protocol:
Some of the synthesized compounds were evaluated for their ability to inhibit iodide entrapment in FRTL5 cells. The IC50 values were measured in at least […] independent experiments.
The biological activity of each compound was determined in FRTL5 cells, using a non radioactive arsenic/cerium assay as described in F. Waltz et al., Anal. Biochem., 2012, 396, 91-95. Compound potency was expressed as IC50, the concentration of compound necessary to achieve 50% inhibition of iodide uptake. Briefly, to FRTL5 cells at 70-90% confluence was added compound (200 μM, 10 μM, 0.5 μM, 25 nM, 1.2 nM, 60 pM, […], and 0.15 pM final), followed by NaI (10 μM final). After 1 hour incubation at 20±1° C., supernatant was removed and the cells were immediately assayed for iodide content using the modified As/Ce Sandell-Kolthoff reaction. NaClO4 was tested in each microplate as assay controls. The IC50 values of all compounds were measured least thrice independently.
Stock solutions of tested compounds were prepared in DMSO (20 mM) and that of NaClO4 in water (20 mM). These stock solutions were stored at 4° C. for up to 2 months. Sample dilutions: the day of the assay, a daughter plate (clear flat-bottomed 96-well polystyrene microplates, Costar 9017) was prepared from 20 mM stock solutions. NaClO4 (column 2) and DHPM samples (columns 4 to 11) were diluted at 10× the final concentration in uptake buffer.
FRTL5 cells were cultured as described in F. S. Ambesi-Impiombato et al., Proc. Natl. Acad. Sci. USA, 1980, 77, 3455-3459. Briefly, FRTL5 cells were cultured in Coon's modified F12 medium supplemented with 5% heat-inactivated fetal bovine serum (Invitrogen), 2 mM L-glutamine, 100 U/mL penicillin, 0.1 mg/mL streptomycin, 10 μg/mL insulin, 10 nM hydrocortisone, 10 ng/mL Gly-His-Lys acetate, 1 mU/mL TSH, 5 μg/mL transferrin at 37° C. and 5% CO2. For iodide uptake assays, 200 μL of FRTL5 cells with density of 250,000 cells/mL were dispensed in each well of clear flat-bottomed 96-well polystyrene microplates (Costar 3628) using the Multidrop 384 (ThermoFisher Scientific), and further cultured until confluence reached 80-90% (3-4 days).
The culture medium of FRTL5 monolayer cells at 80-90% confluence was replaced by uptake buffer (20° C.) via continuous aspiration/dispense cycle (600 μL) using a 96-needle head plate washer PW 384 (Tecan). The 96-needle head was set to a vertical position such that 80 μL of fresh uptake buffer remained in each well at the end of the cycle. The samples (10 μL each) from the daughter plate were transferred all at once to the assay plate using the 96-tip head pipettor Liquidator 96 (Mettler Toledo). Immediately after, 10 μL of a NaI solution at 100 μM was added to each well of the assay plate using the Liquidator 96. The assay plate was left to stand in the dark at 20±1° C. for 60 min. The assay plate was then washed with cold (4° C.) uptake buffer using the PW 384 plate washer and residual supernatant was immediately discarded by inverting the assay plate on absorbent paper.
Sodium iodide standards (S1 to S7) and water (S0) were distributed in duplicate (100 μL each) in the first and last column of the assay plate. Water (100 μL) was added to the columns with the Multidrop 384. 100 μL of the ammonium cerium (IV) sulfate solution (10.5 mM) was distributed into the columns, followed by 100 μL of the sodium arsenite (III) solution (24 mM) using the Multidrop 384. The assay plate was left to stand at 20±1° C. for 30 min. The absorbance at 420 nm (Abs420) was immediately recorded on a SpectraMax Plus 384 (Molecular Devices). A calibration curve was prepared for each plate by plotting the logarithmic conversion of the means of Abs420 (n=2) vs iodide standard concentrations (S0 to S7). The iodide concentrations in the samples were determined after linear regression of the calibration curve.

[2] abbreviates: Table 1, variations at R1, averaged from three or four independent experiments, NaI 10 μM, 1 hour, 20°C, read-out: IC50 (μM), inhibitory activity against iodide uptake in FRTL5 cells.
[3] abbreviates: Table 2, variations at R5, averaged from three or four independent experiments, NaI 10 μM, 1 hour, 20°C, read-out: IC50 (μM), inhibitory activity against iodide uptake in FRTL5 cells.
The mark [4] stands for this setting: Table 3, variations at R2, averaged from three or four independent experiments, NaI 10 μM, 1 hour, 20°C, read-out: IC50 (μM), inhibitory activity against iodide uptake in FRTL5 cells.
Where [5] appears, read: Table 5, variations at Y, R1, R3, R4, R5, averaged from two to four independent experiments, NaI 10 μM, 1 hour, 20°C, read-out: IC50 (μM), inhibitory activity against iodide uptake in FRTL5 cells.

What is called IC50 is the concentration needed to halve the response being measured. The melting point is the temperature, or range, at which the solid turns liquid.

Read-outs that look alike come from different tables or passages of the source.

With `COc1ccc(COC(=O)C2=C(C)NC(=O)NC2c2cccc(Br)c2)cc1` (stereo not drawn) [Compound 21, 4-Methoxybenzyl 4-(3-bromophenyl)-6-methyl-2-oxo-1,2,3,4-tetrahydropyrimidine-5-carboxylate], the melting point fell in the range of 164 to 166 °C. The IC50 in series [1] (setting [2]) amounted to 350 nM. Take `COc1ccc(COC(=O)C2=C(C)NC(=O)NC2c2cccc(Cl)c2)cc1` (stereo not drawn) [Compound 22, 4-Methoxybenzyl 4-(3-chlorophenyl)-6-methyl-2-oxo-1,2,3,4-tetrahydropyrimidine-5-carboxylate]: the melting point is 180 to 181 °C. Besides, in series [1] (setting [2]), the IC50 is 100 nM. Taken in the same sequence, the figures for `COc1ccc(COC(=O)C2=C(C)NC(=O)NC2c2ccccc2F)cc1` (stereo not drawn) [Compound 23, 4-Methoxybenzyl 4-(2-fluorophenyl)-6-methyl-2-oxo-1,2,3,4-tetrahydropyrimidine-5-carboxylate] were 181 to 183 °C and 65 nM. `COc1ccc(COC(=O)C2=C(C)NC(=O)NC2c2cccc(F)c2)cc1` (stereo not drawn) [Compound 24, 4-Methoxybenzyl 4-(3-fluorophenyl)-6-methyl-2-oxo-1,2,3,4-tetrahydropyrimidine-5-carboxylate]: the melting point is 173 to 174 °C. In addition, the IC50 in series [1] (setting [2]) was determined as 75 nM.

`COc1ccc(COC(=O)C2=C(C)NC(=O)NC2c2ccc(F)cc2)cc1` (stereo not drawn) [Compound 25, 4-Methoxybenzyl 4-(4-fluorophenyl)-6-methyl-2-oxo-1,2,3,4-tetrahydropyrimidine-5-carboxylate] gave a melting point of 172 to 175 °C. Besides, the IC50 in series [1] (setting [2]) is 150 nM. As to `COc1ccc(COC(=O)C2=C(C)NC(=O)NC2C2CC2)cc1` (stereo not drawn) [Compound 26, 4-Methoxybenzyl 4-cyclopropyl-6-methyl-2-oxo-1,2,3,4-tetrahydropyrimidine-5-carboxylate], the melting point is 158 to 160 °C. Further, the concentration for half-maximal inhibition (IC50) in series [1] (setting [2]) is 750 nM.

For the compound `COc1ccc(COC(=O)C2=C(C)NC(=O)NC2c2ccco2)cc1` (stereo not drawn) [Compound 27, 4-methoxybenzyl 4-(furan-2-yl)-6-methyl-2-oxo-1,2,3,4-tetrahydropyrimidine-5-carboxylate], the melting point was in the range of 158 to 159 °C. Besides, the IC50 in series [1] (setting [2]) was determined as 3.2 nM. For `COc1cccc(COC(=O)C2=C(C)NC(=O)NC2c2ccccc2)c1` (stereo not drawn) [Compound 37, 3-Methoxybenzyl 6-methyl-2-oxo-4-phenyl-1,2,3,4-tetrahydropyrimidine-5-carboxylate], in series [1] (setting [3]), the IC50 was 50 nM.

With `CC1=C(C(=O)OCc2ccc3c(c2)OCO3)C(c2ccccc2)NC(=O)N1` (stereo not drawn) [Compound 38, Benzo[d][1,3]dioxol-5-ylmethyl 6-methyl-2-oxo-4-phenyl-1,2,3,4-tetrahydropyrimidine-5-carboxylate], the IC50 in series [1] (setting [3]) is 80 nM. Regarding `COc1ccc(COC(=O)C2=C(CC(C)C)NC(=O)NC2c2ccccc2)cc1` (stereo not drawn) [Compound 41, 4-Methoxybenzyl 2-oxo-6-isobutyl-4-phenyl-1,2,3,4-tetrahydropyrimidine-5-carboxylate], the IC50 in series [1] (setting [4]) turned out to be 550 nM. As for `CCCCCC1=C(C(=O)OCc2ccc(OC)cc2)C(c2ccccc2)NC(=O)N1` (stereo not drawn) [Compound 42, 4-Methoxybenzyl 2-oxo-6-pentyl-4-phenyl-1,2,3,4-tetrahydropyrimidine-5-carboxylate], in series [1] (setting [4]), the IC50 was found to be 350 nM. For `COc1ccc(COC(=O)C2=C(C3CCCCC3)NC(=O)NC2c2ccccc2)cc1` (stereo not drawn) [Compound 43, 4-Methoxybenzyl 6-cyclohexyl-2-oxo-4-phenyl-1,2,3,4-tetrahydropyrimidine-5-carboxylate], the IC50 in series [1] (setting [4]) came to 850 nM.

In the case of `COc1ccc(COC(=O)C2=C(c3ccccc3)NC(=O)NC2c2ccccc2)cc1` (stereo not drawn) [Compound 44, 4-Methoxybenzyl 4,6-diphenyl-2-oxo-1,2,3,4-tetrahydropyrimidine-5-carboxylate], in series [1] (setting [4]), the IC50 was found to be 950 nM.

Consider `COc1ccc(COC(=O)C2=C(COc3ccccc3)NC(=O)NC2c2ccccc2)cc1` (stereo not drawn) [Compound 46, 4-Methoxybenzyl 2-oxo-6-phenoxymethyl-4-phenyl-1,2,3,4-tetrahydropyrimidine-5-carboxylate], for which the IC50 in series [1] (setting [4]) was 500 nM. With `COc1ccc(COC(=O)C2=C(Cc3cccs3)NC(=O)NC2c2ccccc2)cc1` (stereo not drawn) [Compound 49, 4-Methoxybenzyl 2-oxo-4-phenyl-6-(thiophen-2-ylmethyl)-1,2,3,4-tetrahydropyrimidine-5-carboxylate], the IC50 in series [1] (setting [4]) came out at 150 nM. `COc1ccc(COC(=O)C2=C(C)N(C)C(=O)N(C)C2c2ccccc2)cc1` (stereo not drawn) [Compound 51, 4-Methoxybenzyl 1,3,6-trimethyl-2-oxo-4-phenyl-1,2,3,4-tetrahydropyrimidine-5-carboxylate]: the IC50 in series [1] (Table 4, variations at X, R3, R4, averaged from three or four independent experiments, NaI 10 μM, 1 hour, 20°C, read-out: IC50 (μM), inhibitory activity against iodide uptake in FRTL5 cells) amounted to 65 nM. With `COc1ccc(COC(=O)C2=C(C)N(C)C(=O)N(C)C2c2ccco2)cc1` (stereo not drawn) [Compound 54, 4-methoxybenzyl 4-(furan-2-yl)-1,3,6-trimethyl-2-oxo-1,2,3,4-tetrahydropyrimidine-5-carboxylate], the IC50 in series [1] (setting [5]) turned out to be 1.6 nM.

Regarding `COc1cccc(COC(=O)C2=C(C)N(C)C(=O)N(C)C2c2ccco2)c1` (stereo not drawn) [Compound 57, 3-methoxybenzyl 4-(furan-2-yl)-1,3,6-trimethyl-2-oxo-1,2,3,4-tetrahydropyrimidine-5-carboxylate], the IC50 in series [1] (setting [5]) is 0.065 nM.

In the case of `CC1=C(C(=O)OCc2ccc3c(c2)OCO3)C(c2ccco2)N(C)C(=O)N1C` (stereo not drawn) [Compound 61, benzo[d][1,3]dioxol-5-ylmethyl 4-(furan-2-yl)-1,3,6-trimethyl-2-oxo-1,2,3,4-tetrahydropyrimidine-5-carboxylate], the IC50 in series [1] (setting [5]) stood at 0.85 nM. As to `[O-][Cl+3]([O-])([O-])O` [Sodium perchlorate, reference compound], in series [1] (assay control, read-out: IC50, iodide entrapment in FRTL5 cells, assay control), the IC50 was determined as 100 nM.
